{
  "source": "patent US5180724A",
  "about": "“Carboxamide amino acid heterobicyclic PAF antagonists” (British Bio-Technology Limited, priority 1991, dated 1993)",
  "key": {"[1]": {"target": "T1, PAF receptor (specific receptor binding site on human platelet plasma membranes) (Homo sapiens, UniProt P25105)", "T1 construct": "from tissue; host or cells: human platelets (platelet concentrates from a hospital blood bank), lysed plasma membranes", "T1 sequence (P25105 whole entry)": "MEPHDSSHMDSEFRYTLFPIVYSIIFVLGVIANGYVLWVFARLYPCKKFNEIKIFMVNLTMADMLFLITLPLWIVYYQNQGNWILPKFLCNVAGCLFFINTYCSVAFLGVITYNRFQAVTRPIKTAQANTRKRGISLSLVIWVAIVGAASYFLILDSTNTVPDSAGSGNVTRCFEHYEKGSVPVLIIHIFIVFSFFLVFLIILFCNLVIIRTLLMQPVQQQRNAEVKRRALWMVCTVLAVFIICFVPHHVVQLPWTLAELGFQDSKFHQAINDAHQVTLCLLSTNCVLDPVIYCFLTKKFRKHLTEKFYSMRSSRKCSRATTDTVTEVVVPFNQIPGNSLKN", "assay": "Inhibition of 3H-PAF binding to human platelet plasma membrane (receptor binding, filtration)", "conditions": "0.5 nM 3H-PAF, 0° C., 1 hour incubation", "protocol": "(§1) Compounds of general formula I inhibit PAF-induced functions in both the cellular and tissue levels by changing the PAF binding to its specific receptor site. The ability of compounds of general formula I to inhibit the binding of PAF to its specific receptor binding site on human platelet plasma membranes was measured according to Pharmacological Example 1. The ability of compounds of general formula I to reverse the hypotension caused by an infusion of PAF in rats was measured according to Pharmacology Example 2.\nThe inhibition of ^3 H-PAF binding to human platelet plasma membrane by compounds of general formula I was determined by isotopic labelling and filtration techniques. Platelet concentrates were obtained from a hospital blood bank. These platelet concentrates (500-2500 ml.) were centrifuged at 800 rpm for 10 minutes in a SORVALL RC3B centrifuge to remove the red blood cells present. (The word SORVALL is a trade mark.) The supernatant was subsequently centrifuged at 3,000 rpm in a SORVALL RC3B centrifuge to pellet the platelets present. […]\nThe assay was conducted by preparing a series of Tris-buffered solutions of the selected antagonist of predetermined concentrations. […] Each washed residue was dried under vacuum on a sampling manifold and placed into vials containing 20 ml of OPTIPHASE MP scintillation fluid and the radioactivity counted in a liquid scintillation counter. […]"}, "[2]": {"test_system": "PAF-induced hypotension in the rat", "assay": "Reversal of PAF-induced hypotension in anaesthetised rats", "format": "in vivo, rat (male Sprague-Dawley)", "conditions": "iv, i.v. bolus during PAF infusion 100 ng/kg/min i.v., mean blood pressure fall of 50 mmHg, read-out: ED50 (dose to cause a 50% reversal of the hypotensive PAF response)", "protocol": "as §1\nMale Sprague-Dawley rats (300-350 gms) were anaesthetised with a mixture of sodium pentobarbitone, 22.5 mg.kg^-1 and thiopental 62.5 mg.kg^-1. Through a midline incision in the neck, the trachea was cannulated and the animals breathed spontaneously. A carotid artery was cannulated for the measurement of blood pressure and this signal was used to trigger a rate meter to measure heart rate. Both jugular veins were cannulated: one for the infusion of PAF and the other for the bolus administration of test compounds.\nPAF, 100 ng.kg^-1. min^-1 was infused i.v. until a sustained fall in mean blood pressure of 50 mmHg was achieved. […] The peak of this reversal was measured and the dose to cause a 50% reversal of the hypotensive PAF response (ED50) calculated by straight line interpolation and the results are presented in Table 2. Also presented in Table 2 is the result for a comparative example (N-cyclohexyl-N-methyl 4-(lH-imidazo[4,5-c]pyridin-1-ylmethyl)benzamide. This compound (a PAF antagonist described in EP-A-02606130) is not within the scope of the invention."}},
  "data": [
    {"smiles": "CN(C(=O)c1ccc(Cn2cnc3cnccc32)cc1)C1CCCCC1", "note": "[Comparative Example, N-cyclohexyl-N-methyl 4-(lH-imidazo[4,5-c]pyridin-1-ylmethyl)benzamide, reference compound]", "values": [
      {"measurement": "IC50", "setting": "[1]", "result": 10, "unit": "µM"},
      {"measurement": "ED50", "setting": "[2]", "result": 150, "unit": "µg/kg"}
    ]},
    {"smiles": "CCOC[C@H](CC(C)C)N(C)C(=O)c1ccc(Cn2c(C)nc3cnccc32)cc1", "note": "[3 (B), N-Methyl-N-L-leucinol ethyl ether 4-(lH-2-methylimidazo[4,5-c]pyridylmethyl)benzamide]", "values": [
      {"measurement": "ED50", "setting": "[2]", "result": 6, "unit": "µg/kg"}
    ]},
    {"smiles": "CCOC(=O)[C@H](CC(C)C)N(C)C(=O)c1ccc(Cn2c(C)nc3cnccc32)cc1", "note": "[2 (B), N-Methyl-N-L-leucinyl ethyl ester 4-(1H-2-methylimidazo[4,5-c]pyridylmethyl)benzamide]", "values": [
      {"measurement": "IC50", "setting": "[1]", "result": 0.01, "unit": "µM"},
      {"measurement": "ED50", "setting": "[2]", "result": 5, "unit": "µg/kg"}
    ]}
  ]
}
